From patent US8835389B2, “Use of calcitonin for the treatment of RA” (priority 2005, dated 2014)
No end group written: not given here.

Columns and labels:
[1] = in vivo
[2] = Water solubility of delivery agents
[3] = system: Collagen Induced Arthritis model (CIA-model) in lewis rats; assay: Collagen Induced Arthritis model (CIA-model), serum CTX-II; format: in vivo; conditions: day 21 after collagen injection, 50 mg/kg 5-CNAC+calcitonin 2 mg/kg twice daily, versus CIA-group
Description: Arthritis induced in rodents by the systemic administration of type II collagen (CII) is an experimental model with many resemblances to RA, and is widely used for studying the disease processes (reviewed in Wooley P H, Chapedelaine J M. Immunogenetics of collagen-induced arthritis. Crit Rev Immunol 1987; 8: 1-22; and Trentham D E. Collagen arthritis as a relevant model for rheumatoid arthritis. Arth Rheum 1982; 25: 9116).
Upon immunization with purified CII in complete Freund's adjuvant, genetically susceptible strains of rodents develop arthritis, which is characterized by cellular and humoral immune responses to CII. […]
Animals are monitored for signs of arthritis one week post immunization on a daily basis and a clinical scoring system is adopted wherein each limb is given a clinical score on the basis of visual signs of oedema and/or erythema as follows: 0=normal, 1=slight swelling and/or erythema at the base of the paw, 2=frank oedema and erythema involving the entire paw, 2·5=pronounced oedema and erythema leading to an incapacitated limb mobility, 3=ankylosis, as previously described in Malfait A M, Butler D M, Presky D H et al., Blockade of IL-12 during the induction of collagen-induced arthritis (CIA) markedly attenuates the severity of the arthritis. […]

O=C(O)CCCCCCCNC(=O)c1cc(Cl)ccc1O [5 CNAC, N-(5-chlorosalicyloyl)-8-aminocaprylic acid]
absorbed by the gastro-intestinal tract [1]: greater than 90%

O=C(O)CCCCCCCCCNC(=O)c1ccccc1O [SNAD, N-(10-[2-hydroxybenzoyl]amino)decanoic acid]
water solubility [2]: very water soluble

Calcitonin (CGNLSTCMLGTYTQDFNKFHTFPQTAIGVGAP; ends and bridges not checked; cysteine pairing not given here; UniProt P01258 85-116, looked up)
reduction of the increase in serum c-terminal telopeptide of type II collagen (serum CTX-II) [3]: 33%
